According to patent publication US7763642B2 (Sterix Ltd., priority 2004, dated 2010):
Read-outs that look alike come from different tables or passages of the source.

Assays:
steroid sulphatase (STS) = biological target: T1, steroid sulphatase (STS) (Homo sapiens, UniProt P08842); test: Inhibition of steroid sulphatase activity in JEG3 cells (Protocol 1); type: cell-based; settings: for inhibition at 10 µM: JEG-3, read-out: % STS INHIBITION (10 μM)
T1 construct: Intact monolayers of JEG3 cells in triplicate 25 cm^2 tissue culture flasks; host or cells: JEG3 choriocarcinoma cells
T1 sequence (P08842 22-583): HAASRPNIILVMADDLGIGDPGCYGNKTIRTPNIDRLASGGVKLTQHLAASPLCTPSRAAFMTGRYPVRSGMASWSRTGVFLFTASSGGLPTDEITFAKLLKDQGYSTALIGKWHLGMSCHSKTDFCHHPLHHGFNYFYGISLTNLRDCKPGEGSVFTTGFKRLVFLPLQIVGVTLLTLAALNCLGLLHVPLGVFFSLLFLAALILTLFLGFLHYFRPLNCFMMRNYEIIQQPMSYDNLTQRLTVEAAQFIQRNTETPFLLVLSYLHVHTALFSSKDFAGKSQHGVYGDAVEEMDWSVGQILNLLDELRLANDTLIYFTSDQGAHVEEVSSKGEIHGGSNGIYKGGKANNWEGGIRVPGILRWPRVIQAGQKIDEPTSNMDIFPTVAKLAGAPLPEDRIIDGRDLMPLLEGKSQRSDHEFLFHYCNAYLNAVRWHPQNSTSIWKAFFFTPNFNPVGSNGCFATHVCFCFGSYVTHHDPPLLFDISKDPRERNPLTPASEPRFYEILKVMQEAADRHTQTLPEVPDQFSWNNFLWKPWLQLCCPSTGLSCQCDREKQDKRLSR
Procedure: Steroid sulphatase activity is measured in vitro using intact JEG3 choriocarcinoma cells. This cell line may be used to study the control of human breast cancer cell growth.
Cells are maintained in Minimal Essential Medium (MEM) (Flow Laboratories, Irvine, Scotland) containing 20 mM HEPES, 5% foetal bovine serum, 2 mM glutamine, non-essential amino acids and 0.075% sodium bicarbonate. Up to 30 replicate 25 cm2 tissue culture flasks are seeded with approximately 1×10^5 cells/flask using the above medium. Cells are grown to 80% confluency and the medium is changed every third day.
Intact monolayers of JEG3 cells in triplicate 25 cm^2 tissue culture flasks are washed with Earle's Balanced Salt Solution (EBSS from ICN Flow, High Wycombe, U.K.) and incubated for 3-4 hours at 37° C. with 5 pmol (7×10^5 dpm) [6,7-3H]oestrone-3-sulphate (specific activity 60 Ci/mmol from New England Nuclear, Boston, Mass., U.S.A.) in serum-free MEM (2.5 ml) together with oestrone-3-sulphamate (11 concentrations: 0; 1 fM; 0.01 pM; 0.1 pM; 1 pM; 0.01 nM; 0.1 nM; 1 nM; […]). After incubation each flask is cooled and the medium (1 ml) is pipetted into separate tubes containing [14C]oestrone (7×10^3 dpm) (specific activity 97 Ci/mmol from Amersham International Radiochemical Centre, Amersham, U.K.). The mixture is shaken thoroughly for 30 seconds with toluene (5 ml). Experiments have shown that >90% [14C] oestrone and <0.1% [3H]oestrone-3-sulphate is removed from the aqueous phase by this treatment. A portion (2 ml) of the organic phase is removed, evaporated and the 3H and 14C content of the residue determined by scintillation spectrometry. The mass of oestrone-3-sulphate hydrolysed was calculated from the 3H counts obtained (corrected for the volumes of the medium and organic phase used, and for recovery of [14C] oestrone added) and the specific activity of the substrate. Each batch of experiments includes incubations of microsomes prepared from a sulphatase-positive human placenta (positive control) and flasks without cells (to assess apparent non-enzymatic hydrolysis of the substrate). The number of cell nuclei per flask is determined using a Coulter Counter after treating the cell monolayers with Zaponin. One flask in each batch is used to assess cell membrane status and viability using the Trypan Blue exclusion method (Phillips, H. J. (1973) In: Tissue culture and applications, [eds: Kruse, D. F. & Patterson, M. K.]; pp. 406-408; Academic Press, New York).
Results for steroid sulphatase activity are expressed as the mean±1 S.D. of the total product (oestrone+oestradiol) formed during the incubation period (3-4 hours) calculated for […] and, for values showing statistical significance, as a percentage reduction (inhibition) over incubations containing no oestrone-3-sulphamate. Unpaired Student's t-test was used to test the statistical significance of results.

aromatase = biological target: T2, aromatase (Homo sapiens, UniProt P11511); test: Aromatase activity in JEG3 choriocarcinoma cells (Protocol 6); type: cell-based
T2 construct: Intact monolayers of JEG3 cells (2.5×10^6 cells) in triplicate 25 cm^2 tissue culture flasks; host or cells: JEG3 choriocarcinoma cells
T2 sequence (P11511 1-503): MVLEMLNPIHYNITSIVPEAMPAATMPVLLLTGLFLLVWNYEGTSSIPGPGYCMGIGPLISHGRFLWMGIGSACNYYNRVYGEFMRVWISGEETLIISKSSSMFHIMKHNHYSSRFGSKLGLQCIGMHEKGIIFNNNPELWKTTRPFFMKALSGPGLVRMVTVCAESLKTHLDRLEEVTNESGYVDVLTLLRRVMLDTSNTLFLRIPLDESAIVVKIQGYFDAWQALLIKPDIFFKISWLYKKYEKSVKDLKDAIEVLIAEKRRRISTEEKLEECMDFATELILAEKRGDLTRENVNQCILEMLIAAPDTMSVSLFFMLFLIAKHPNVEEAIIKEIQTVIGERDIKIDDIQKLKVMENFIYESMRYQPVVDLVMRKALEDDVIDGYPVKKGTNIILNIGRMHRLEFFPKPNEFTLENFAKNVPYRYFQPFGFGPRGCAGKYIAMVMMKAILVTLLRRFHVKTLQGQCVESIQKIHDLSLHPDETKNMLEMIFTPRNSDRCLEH
Procedure: Aromatase activity is measured in JEG3 choriocarcinoma cells, obtained from the ATCC. […] Cells are maintained in Minimal Essential Medium (MEM, Flow Laboratories, Irvine, Scotland) containing 20 mM HEPES, 10% foetal bovine serum, 2 mM glutamine, non-essential amino acids and 0.075% sodium bicarbonate. Intact monolayers of JEG3 cells (2.5×10^6 cells) in triplicate 25 cm^2 tissue culture flasks are washed with Earle's Balanced salt solution (EBSS, from ICN Flow, High Wycombe, UK) and incubated with [1β-^3H] androstenedione (2-5 nM, 26 Ci/mmol, New England Nuclear, Boston, Mass., USA) for 30 min with inhibitors over the range of 10 pm-10 μM. During the aromatase reaction, ^3H2O is liberated which can he quantified using a liquid scintillation spectrometer (Beckman-Coulter, High Wycombe, Bucks. UK). […] The number of cell nuclei per flask is determined using a Coulter Counter after treating the cell monolayers with Z aponin.
Unpaired Student's t test was used to test the statistical significance of results. IC50 values were calculated as the concentration of inhibitor required to obtain a 50% inhibition of aromatase activity.

uterus = settings: cited from earlier work
steroid sulphatase = biological target: T3, steroid sulphatase (Homo sapiens, UniProt P08842); settings: versus EMATE; cited from earlier work
T3 sequence (P08842 22-583): T1 sequence (P08842 22-583)

E1-STS = biological target: T4, E1-STS (Homo sapiens, UniProt P08842); settings: 0.1 nM; cited from earlier work
T4 construct: host or cells: MCF-7 cells
T4 sequence (P08842 22-583): T1 sequence (P08842 22-583)

[1] = biological target: T5, oestrone sulphatase (STS) (Rattus norvegicus, UniProt P15589); test: Inhibition of oestrone sulphatase activity in vivo (Protocol 3)
T5 construct: samples of liver tissue were obtained and oestrone sulphatase activity assayed; from tissue; host or cells: rat liver
T5 sequence (P15589 20-577): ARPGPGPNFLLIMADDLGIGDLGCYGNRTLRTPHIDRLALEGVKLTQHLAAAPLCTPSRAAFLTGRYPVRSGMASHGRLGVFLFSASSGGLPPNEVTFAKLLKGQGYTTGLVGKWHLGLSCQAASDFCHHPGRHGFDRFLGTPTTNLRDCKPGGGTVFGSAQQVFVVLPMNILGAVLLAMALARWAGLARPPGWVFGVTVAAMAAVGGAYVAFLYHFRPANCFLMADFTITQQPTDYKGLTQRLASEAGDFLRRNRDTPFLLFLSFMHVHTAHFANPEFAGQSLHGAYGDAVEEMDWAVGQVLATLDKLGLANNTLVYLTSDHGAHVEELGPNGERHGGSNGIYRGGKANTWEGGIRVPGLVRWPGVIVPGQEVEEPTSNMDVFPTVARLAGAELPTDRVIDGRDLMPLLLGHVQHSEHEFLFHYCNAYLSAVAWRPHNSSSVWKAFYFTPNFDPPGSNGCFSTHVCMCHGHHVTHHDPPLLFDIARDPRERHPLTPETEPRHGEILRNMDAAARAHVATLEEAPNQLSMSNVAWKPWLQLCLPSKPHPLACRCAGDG
Procedure: The compounds of the present invention may be studied using an animal model, in particular in ovariectomised rats. In this model compounds which are oestrogenic stimulate uterine growth.
At the end of the study samples of liver tissue were obtained and oestrone sulphatase activity assayed using 3H oestrone sulphate as the substrate as previously described (see PCT/GB95/02638).
In vivo data were recorded using the above described aromatase and STS animals assays. The relevant compounds were administered and for each animal both aromatase and STS activities were determined.

[2] = JEG-3; read-out: % AROMATASE INHIBITION (10 μM)
[3] = JEG-3, read-out: % AROMATASE INHIBITION (10 μM)

Row | Structure (SMILES) | inhibition at 10 µM (steroid sulphatase (STS)) | inhibition at 10 µM (aromatase; [2]) | other results
1 | CC(C)(C#N)c1cc(CSc2ccc(OS(N)(=O)=O)c(Cl)c2)cc(Cn2cncn2)c1 | 82.3 ± 0.8% | 99.9 ± 0.2% | –
2 | CC(C)(C#N)c1cc(COc2ccc(OS(N)(=O)=O)cc2)cc(Cn2cncn2)c1 | < 10% | 99.8 ± 0.2% | –
3 | COc1cc2c(cc1OS(N)(=O)=O)CC[C@@H]1[C@@H]2CC[C@]2(C)C(=O)CC[C@@H]12 [2-methoxyoestrone-3-O-sulphamate] | – | – | oestrogenicity (uterus; rat, in vivo): devoid of oestrogenicity; potency as steroid sulphatase inhibitor relative to EMATE (steroid sulphatase): equipotent with EMATE
4 | CC12CCC3c4ccc(OS(N)(=O)=O)cc4CCC3C1CCC2=O (stereo not drawn) [EMATE, oestrone-3-sulphamate] | – | – | inhibition of E1-STS activity in intact MCF-7 cells (E1-STS): more than 99%; oral uterotrophic activity relative to estradiol (uterus; rats, oral, versus estradiol): 100 times
5 | CC(C)(C#N)c1cc(CSc2ccc(O)cc2)cc(Cn2cncn2)c1 [STX1022] | – | – | IC50 (aromatase; JEG3 cells): 1 nM
6 | CC(C)(C#N)c1cc(CSc2ccc(OS(N)(=O)=O)cc2)cc(Cn2cncn2)c1 [STX1023] | – | – | IC50 (steroid sulphatase (STS); JEG3 cells): > 10000 nM; inhibition at 10 mg/kg [1]: 87%; IC50 (aromatase; JEG3 cells): 3.5 nM
7 | N#Cc1ccc(-c2ccc(OS(N)(=O)=O)cc2)cc1Cn1cncn1 [STX1522, Sulfamic acid 4′-cyano-3′-[1,2,4]triazol-1-ylmethyl-biphenyl-4-yl ester] | 96.1 ± 0.3% | – | inhibition at 10 µM (aromatase; [3]): 98 ± 0.3%
8 | CC(C)(C#N)c1cc(Cn2cncn2)cc(-c2ccc(OS(N)(=O)=O)cc2)c1 [STX1523, Sulfamic acid 3′-(cyano-dimethyl-methyl)-5′-[1,2,4]triazol-1-ylmethyl-biphenyl-4-yl ester] | 24.4 ± 3.1% | 99.7 ± 0.2% | –
9 | COC(=O)c1cc(Cn2cncn2)cc(NS(=O)(=O)c2ccc(OS(N)(=O)=O)c(F)c2)c1 [STX1528, 3-(3-Fluoro-4-sulfamoyloxy-benzenesulfonylamino)-5-[1,2,4]triazol-1-ylmethyl-benzoic acid methyl ester] | < 10% | – | inhibition at 10 µM (aromatase; [3]): 83.4 ± 1.3%
10 | N#CC1(c2cc(CSc3ccc(OS(N)(=O)=O)cc3)cc(Cn3cncn3)c2)CCC1 [STX1731, 4-((3-((1H-1,2,4-triazol-1-yl)methyl)-5-(1-cyanocyclobutyl)benzyl)sulfanyl)phenyl sulfamate] | 21.4 ± 7.9% | 99.5 ± 0.2% | –
11 | N#CC1(c2cc(CSc3ccc(OS(N)(=O)=O)cc3)cc(Cn3cncn3)c2)CC1 [STX1732, 4-((3-((1H-1,2,4-triazol-1-yl)methyl)-5-(1-cyanocyclopropyl)benzyl)sulfanyl)phenyl sulfamate] | < 10% | 99.8 ± 0.1% | –
12 | N#CC1(c2cc(CSc3ccc(OS(N)(=O)=O)c(Cl)c3)cc(Cn3cncn3)c2)CCC1 [STX1794, 4-((3-((1H-1,2,4-triazol-1-yl)methyl)-5-(1-cyanocyclobutyl)benzyl)sulfanyl)-2-chlorophenyl sulfamate] | 75.3 ± 0.6% | 99.7 ± 0.1% | –
13 | CC(C)(C#N)c1cc(CSc2ccc(OS(N)(=O)=O)c(Br)c2)cc(Cn2cncn2)c1 [STX1795, 4-((3-((1H-1,2,4-triazol-1-yl)methyl)-5-(2-cyanopropan-2-yl)benzyl)sulfanyl)-2-bromophenyl sulfamate] | – | 100% | –
14 | COC(=O)c1cc(Cn2cncn2)cc(N(C)S(=O)(=O)c2ccc(OS(N)(=O)=O)cc2)c1 [STX1829, 3-[Methyl-(4-sulfamoyloxy-benzenesulfonyl)-amino]-5-[1,2,4]triazol-1-ylmethyl-benzoic acid methyl ester] | 17.6 ± 4% | 99.5 ± 0.2% | –
15 | COC(=O)c1cc(Cn2cncn2)cc(NC(=O)c2ccc(OS(N)(=O)=O)cc2)c1 [STX1830, 3-(4-Sulfamoyloxy-benzoylamino)-5-[1,2,4]triazol-1-ylmethyl-benzoic acid methyl ester] | 33.4 ± 5.3% | – | inhibition at 10 µM (aromatase; [3]): 52.7 ± 6.7%
16 | CC(C)(C#N)c1cc(/C=C/c2ccc(OS(N)(=O)=O)cc2)cc(Cn2cncn2)c1 [STX1833, 4-(3-((1H-1,2,4-triazol-1-yl)methyl)-5-(2-cyanopropan-2-yl)styryl)phenyl sulfamate] | 21.5 ± 4.7% | – | –
